From US20230416275A1, “MODULATORS OF CYSTIC FIBROSIS TRANSMEMBRANE CONDUCTANCE REGULATOR” (VERTEX PHARMACEUTICALS INCORPORATED, priority 2020, published 2023)
Like-named read-outs stand apart in the source and are kept apart here.

Assays:
[1] = amide bond; 14-membered ring; HATU/DIEA; DMF; 3 steps
[2] = target: T1, CFTR-mediated chloride transport in human intestinal epithelial enteroid cells (Homo sapiens, UniProt P13569); assay: Membrane potential dye, Enteroid Assay A; assay type: cell-based; conditions: for Ent. A Max Activity (%): % of chloride transport of triple combination control (3 μM N-[(6-amino-2-pyridyl)sulfonyl]-6-(3-fluoro-5-isobutoxy-phenyl)-2-[(4S)-2,2,4-trimethylpyrrolidin-1-yl]pyridine-3-carboxamide, 3 μM tezacaftor, 300 nM acute ivacaftor); for EC50: enteroid cells, 18-24 hours incubation, acute 10 μM forskolin and 300 nM ivacaftor, read-out: Ent. A EC50
T1 sequence (P13569 with tags, fused parts or gaps DEL508-508): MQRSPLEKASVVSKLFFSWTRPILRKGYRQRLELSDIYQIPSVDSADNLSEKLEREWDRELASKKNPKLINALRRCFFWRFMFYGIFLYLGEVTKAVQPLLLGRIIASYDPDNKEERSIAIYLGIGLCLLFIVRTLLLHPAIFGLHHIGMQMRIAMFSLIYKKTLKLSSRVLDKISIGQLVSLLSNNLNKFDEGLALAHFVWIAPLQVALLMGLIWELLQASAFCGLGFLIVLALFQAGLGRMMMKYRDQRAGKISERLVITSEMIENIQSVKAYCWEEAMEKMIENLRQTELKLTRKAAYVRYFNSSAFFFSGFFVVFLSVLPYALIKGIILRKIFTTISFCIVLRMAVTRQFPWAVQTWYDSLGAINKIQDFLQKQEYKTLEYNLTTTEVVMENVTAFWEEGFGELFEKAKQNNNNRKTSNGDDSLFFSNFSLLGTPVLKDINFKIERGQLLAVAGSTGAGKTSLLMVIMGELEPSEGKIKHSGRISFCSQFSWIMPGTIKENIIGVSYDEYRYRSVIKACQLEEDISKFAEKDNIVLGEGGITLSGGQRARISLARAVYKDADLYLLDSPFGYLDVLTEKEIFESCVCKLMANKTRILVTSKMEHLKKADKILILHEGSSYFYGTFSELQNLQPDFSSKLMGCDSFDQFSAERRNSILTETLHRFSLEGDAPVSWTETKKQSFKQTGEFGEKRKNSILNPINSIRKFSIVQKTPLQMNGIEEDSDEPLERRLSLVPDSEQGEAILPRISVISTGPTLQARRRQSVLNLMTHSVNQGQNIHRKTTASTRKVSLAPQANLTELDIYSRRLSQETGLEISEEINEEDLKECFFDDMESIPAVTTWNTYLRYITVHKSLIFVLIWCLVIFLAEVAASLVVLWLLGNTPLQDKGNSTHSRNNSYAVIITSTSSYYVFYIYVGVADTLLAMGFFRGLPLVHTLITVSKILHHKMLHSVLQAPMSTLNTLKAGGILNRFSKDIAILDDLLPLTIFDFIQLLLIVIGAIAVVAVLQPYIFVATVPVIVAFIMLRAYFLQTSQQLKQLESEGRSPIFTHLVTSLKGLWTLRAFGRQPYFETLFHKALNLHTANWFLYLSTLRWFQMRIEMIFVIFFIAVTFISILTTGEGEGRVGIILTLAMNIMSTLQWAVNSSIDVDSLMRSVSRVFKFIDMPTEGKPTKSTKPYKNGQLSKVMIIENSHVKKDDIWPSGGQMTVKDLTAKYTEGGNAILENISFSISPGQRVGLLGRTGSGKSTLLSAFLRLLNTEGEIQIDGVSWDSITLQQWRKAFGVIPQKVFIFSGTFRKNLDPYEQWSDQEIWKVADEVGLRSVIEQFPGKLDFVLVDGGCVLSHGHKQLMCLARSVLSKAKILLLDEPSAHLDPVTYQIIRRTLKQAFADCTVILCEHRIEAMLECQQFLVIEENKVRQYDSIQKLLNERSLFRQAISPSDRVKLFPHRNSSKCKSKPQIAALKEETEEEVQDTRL
Procedure, shortened: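 Enteroids seeded at 5000 cells/well were exposed to test compound in IEMM for 18-24 h at 37 °C, then loaded with methyl oxonol membrane potential dye. Chloride transport was triggered in chloride-free buffer with 10 μM forskolin, 100 μM IBMX and 300 nM Compound III, read by fluorescence for 15 min and expressed as % of a triple-combination control.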

[3] = target: CFTR (Homo sapiens, UniProt P13569); assay: standard Ussing Chamber Assay for CFTR potentiator activity; assay type: cell-based
Chain of CFTR (P13569 whole entry, species assumed): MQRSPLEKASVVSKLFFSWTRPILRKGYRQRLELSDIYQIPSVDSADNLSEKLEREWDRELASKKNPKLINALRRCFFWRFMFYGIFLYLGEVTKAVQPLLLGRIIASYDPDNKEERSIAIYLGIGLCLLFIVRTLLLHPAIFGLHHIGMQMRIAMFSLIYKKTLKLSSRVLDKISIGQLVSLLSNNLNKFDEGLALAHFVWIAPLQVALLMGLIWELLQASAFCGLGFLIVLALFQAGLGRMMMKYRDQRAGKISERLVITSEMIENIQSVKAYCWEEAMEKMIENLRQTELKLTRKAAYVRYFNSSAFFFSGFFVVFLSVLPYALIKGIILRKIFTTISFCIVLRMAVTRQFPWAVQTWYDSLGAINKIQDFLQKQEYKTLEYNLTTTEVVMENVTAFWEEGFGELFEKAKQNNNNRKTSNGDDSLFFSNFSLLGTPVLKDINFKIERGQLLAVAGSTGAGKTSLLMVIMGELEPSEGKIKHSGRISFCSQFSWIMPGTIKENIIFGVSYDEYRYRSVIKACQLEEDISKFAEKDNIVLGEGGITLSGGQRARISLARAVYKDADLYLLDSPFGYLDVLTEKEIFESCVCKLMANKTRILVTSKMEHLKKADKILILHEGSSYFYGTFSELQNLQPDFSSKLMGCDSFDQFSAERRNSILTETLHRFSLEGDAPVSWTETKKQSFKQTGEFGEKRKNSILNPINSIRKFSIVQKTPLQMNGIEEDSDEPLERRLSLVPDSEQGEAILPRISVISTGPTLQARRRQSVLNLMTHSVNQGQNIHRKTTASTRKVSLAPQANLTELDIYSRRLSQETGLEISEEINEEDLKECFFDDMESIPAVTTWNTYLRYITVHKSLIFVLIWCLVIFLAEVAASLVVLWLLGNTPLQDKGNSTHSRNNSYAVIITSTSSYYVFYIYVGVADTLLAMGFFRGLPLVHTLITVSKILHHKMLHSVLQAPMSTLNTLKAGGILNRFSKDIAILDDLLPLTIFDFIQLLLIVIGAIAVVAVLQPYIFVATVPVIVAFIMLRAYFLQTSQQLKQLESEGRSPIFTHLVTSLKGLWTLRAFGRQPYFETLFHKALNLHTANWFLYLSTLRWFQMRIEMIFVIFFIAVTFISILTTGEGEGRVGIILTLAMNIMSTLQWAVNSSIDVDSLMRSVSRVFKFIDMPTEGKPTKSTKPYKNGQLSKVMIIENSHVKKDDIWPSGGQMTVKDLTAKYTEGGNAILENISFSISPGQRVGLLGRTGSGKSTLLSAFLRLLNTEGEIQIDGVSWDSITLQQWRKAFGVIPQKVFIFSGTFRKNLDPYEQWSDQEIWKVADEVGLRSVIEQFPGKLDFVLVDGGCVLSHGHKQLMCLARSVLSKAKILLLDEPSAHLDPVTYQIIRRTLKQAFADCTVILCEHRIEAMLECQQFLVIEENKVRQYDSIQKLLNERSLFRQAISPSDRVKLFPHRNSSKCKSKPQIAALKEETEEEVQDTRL
Description: tert-Butyl N-[(6R,12R)-6-benzyloxy-12-methyl-6,15-bis(trifluoromethyl)-13,19-dioxa-3,4,18-triazatricyclo[12.3.1.12,5]nonadeca-1(18),2,4,14,16-pentaen-17-yl]-N-tert-butoxycarbonyl-carbamate (8.6 g, 11.77 mmol) was dissolved in ethanol (172 mL) then the flask was cycled 3 times between vacuum/nitrogen. Treated the mixture with 10% Pd/C (50% water wet, 1.8 g of 5% w/w, 0.8457 mmol) then cycled 3 times between vacuum/nitrogen and 3 times between vacuum/hydrogen and then stirred vigorously under hydrogen (balloon) at room temperature for 18 hours. The mixture was cycled 3 times between vacuum/nitrogen, filtered over Celite, washing with ethanol, and then the filtrate was evaporated to give 7.3 g of tert-butyl N-tert-butoxycarbonyl-N-[(6R,12R)-6-hydroxy-12-methyl-6,15-bis(trifluoromethyl)-13,19-dioxa-3,4,18-triazatricyclo[12.3.1.12,5]nonadeca-1(18),2,4,14,16-pentaen-17-yl]carbamate an off-white solid. 1H NMR and MS confirmed the expected product. CFTR modulatory activity was confirmed using a standard Ussing Chamber Assay for CFTR potentiator activity.

[4] = target: T2, F508del in NIH 3T3 cells (Homo sapiens, UniProt P13569, DEL508-508); assay: 3T3 assay: membrane potential optical assay for F508del correction; assay type: cell-based, mouse; conditions: for EC50: F508del NIH 3T3 cells, compound incubation 18-24 hours at 37° C., forskolin activation, read-out: 3T3 EC50; for Emax: NIH3T3, F508del NIH 3T3 cells, efficacy compared to lumacaftor in combination with acutely added 300 nM Ivacaftor, read-out: 3T3 Max Activity (%)
T2 construct: expressed in transfected cells
T2 sequence (P13569 with tags, fused parts or gaps DEL508-508): as the sequence (P13569 with tags, fused parts or gaps DEL508-508) above
Procedure, shortened: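 NIH3T3 mouse fibroblasts stably expressing F508del incubated with corrector compounds at a range of concentrations for 16-24 h at 37 °C, then loaded with voltage-sensing redistribution dye. Single addition of forskolin with Cl− gradient (chloride-free gluconate bath vs. NaCl bath, pH 7.4); membrane potential change read by fluorescence on FLIPR.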

[5] = target: T1, CFTR-mediated chloride transport in human intestinal epithelial enteroid cells; assay: Membrane potential dye, Enteroid Assay B; assay type: cell-based; conditions: for Ent. B Max Activity (%): % of chloride transport of triple combination control (1 μM (14S)-8-[3-(2-{Dispiro[2.0.2.1]heptan-7-yl}ethoxy)-1H-pyrazol-1-yl]-12,12-dimethyl-... macrocycle, 3 μM tezacaftor, 300 nM acute ivacaftor); for EC50: enteroid cells, 18-24 hours incubation, acute 10 μM forskolin and 300 nM ivacaftor, read-out: Ent. B EC50
Description: Base medium (ADF+++) consisted of Advanced DMEM/Ham's F12, 2 mM Glutamax, 10 mM HEPES, […] penicillin/streptomycin.
Intestinal enteroid maintenance medium (IEMM) consisted of ADF+++, 1×B27 supplement, 1×N2 supplement, 1.25 mM N-acetyl cysteine, 10 mM Nicotinamide, 50 ng/mL hEGF, 10 nM Gastrin, 1 μg/mL hR-spondin-1, 100 ng/mL hNoggin, TGF-b type 1 inhibitor A-83-01, 100 μg/mL Primocin, 10 μM P38 MAPK inhibitor SB202190.
Bath 1 Buffer consisted of 1 mM MgCl2, 160 mM NaCl, 4.5 mM KCl, 10 mM HEPES, 10 mM Glucose, 2 mM CaCl2.
Chloride Free Buffer consisted of 1 mM Magnesium Gluconate, 2 mM Calcium Gluconate, 4.5 mM Potassium Gluconate, 160 mM Sodium Gluconate, 10 mM HEPES, 10 mM Glucose.
Bath1 Dye Solution consisted of Bath 1 Buffer, 0.04% Pluronic F127, 20 μM Methyl Oxonol, 30 μM CaCCinh-A01, 30 μM Chicago Sky Blue.
Chloride Free Dye Solution consisted of Chloride Free Buffer, 0.04% Pluronic F127, 20 μM Methyl Oxonol, 30 μM CaCCinh-A01, 30 μM Chicago Sky Blue.
Chloride Free Dye Stimulation Solution consisted of Chloride Free Dye Solution, 10 μM forskolin, 100 μM IBMX, and 300 nM Compound III.
Human intestinal epithelial enteroid cells were obtained from the Hubrecht Institute for Developmental Biology and Stem Cell Research, Utrecht, The Netherlands and expanded in T-Flasks as previously described (Dekkers J F, Wiegerinck C L, de Jonge H R, Bronsveld I, Janssens H M, de Winter-de Groot K M, Brandsma A M, de Jong N W M, Bijvelds M J C, Scholte B J, Nieuwenhuis E E S, van den Brink S, Clevers H, van der Ent C K, Middendorp S and M Beekman J M. A functional CFTR assay using primary cystic fibrosis intestinal organoids. Nat Med. 2013 July; 19(7):939-45).
c. Enteroid Cell Harvesting and Seeding
Cells were recovered in cell recovery solution, collected by centrifugation at 650 rpm for 5 minutes at 4° C., resuspended in TrypLE and incubated for 5 minutes at 37° C. Cells were then collected by centrifugation at 650 rpm for 5 minutes at 4° C. and resuspended in IEMM containing 10 μM ROCK inhibitor (RI). The cell suspension was passed through a 40 μm cell strainer and resuspended at 1×10^6 cells/mL in IEMM containing 10 μM RI. Cells were seeded at 5000 cells/well into multi-well plates and incubated for overnight at 37° C., 95% humidity and 5% CO2 prior to assay.
e. Membrane Potential Dye, Enteroid Assay B
Enteroid cells were incubated with test compound in IEMM for 18-24 hours at 37° C., 95% humidity and 5% CO2. […] Briefly, cells were washed 5 times in Bath 1 Buffer. Bath 1 Dye Solution was added and the cells were incubated for 25 minutes at room temperature. Following dye incubation, cells were washed 3 times in Chloride Free Dye Solution. Chloride transport was initiated by addition of Chloride Free Dye Stimulation Solution and the fluorescence signal was read for 15 minutes. […] Chloride transport was then expressed as a percentage of the chloride transport following treatment with 1 μM (14S)-8-[3-(2-{Dispiro[2.0.2.1]heptan-7-yl}ethoxy)-1H-pyrazol-1-yl]-12,12-dimethyl-2λ^6-thia-3,9,11,18,23-pentaazatetracyclo[17.3.1.111,14.05,10]tetracosa-1(22),5,7,9,19(23),20-hexaene-2,2,4-trione, 3 μM (R)-1-(2,2-difluorobenzo[d][1,3]dioxol-5-yl)-N-(1-(2,3-dihydroxypropyl)-6-fluoro-2-(1-hydroxy-2-methylpropan-2-yl)-1H-indol-5-yl)cyclopropanecarboxamide and 300 nM acute N-[2,4-bis(1,1-dimethylethyl)-5-hydroxyphenyl]-1,4-dihydro-4-oxoquinoline-3-carboxamide triple combination control (% Activity).

| EC50 [2] | EC50 [4] | Emax [4] | Structure (SMILES) | Ent. A Max Activity (%) [2] | further results |
| --- | --- | --- | --- | --- | --- |
| < 1000 nM | – | – | Cc1cccc(C)c1-c1cc2nc(n1)NS(=O)(=O)c1cncc(c1)NC(=O)C1CC(CN(C(=O)OC(C)(C)C)C1)O2 (racemic) [Compound 14, tert-Butyl 19-(2,6-dimethylphenyl)-8,15,15-trioxo-2-oxa-15λ^6-thia-5,9,12,16,18,21-hexaazatetracyclo[15.3.1.13,7.110,14]tricosa-1(21),10,12,14(22),17,19-hexaene-5-carboxylate] | + (+ is <30%) | ring closure, yield after HPLC (from Cc1cccc(C)c1-c1cc(OC2CC(C(=O)Oc3c(F)c(F)c(F)c(F)c3F)CN(C(=O)OC(C)(C)C)C2)nc(NS(=O)(=O)c2cncc(N)c2)n1, amide bond, 14-membered ring, none (thermal, OPfp ester), NMP, 12.1 mM, 140.0 °C, 5.0 h, 5 steps): 1% |
| 1000 to 3000 nM | < 1000 nM | > 60% | Cc1cccc(C)c1-c1cc2nc(n1)NS(=O)(=O)c1cccc(c1)NC(=O)CCCc1cccc(c1)O2 [Compound 65, 5-(2,6-Dimethylphenyl)-9,9-dioxo-2-oxa-9λ^6-thia-6,8,15,26-tetraazatetracyclo[18.3.1.13,7.110,14]hexacosa-1(23),3,5,7(26),10(25),11,13,20(24),21-nonaen-16-one] | +++ (+++ is >60%) | ring closure, yield after HPLC (from Cc1cccc(C)c1-c1cc(Oc2cccc(CCCC(=O)O)c2)nc(NS(=O)(=O)c2cccc(N)c2)n1, amide bond, 17-membered ring, HATU/DIEA, DMF, 56.8 mM, 0.033 h): 28% |

Continued, compound first:

| Structure (SMILES) | EC50 [2] | EC50 [4] | Emax [4] | Ent. A Max Activity (%) [2] | further results |
| --- | --- | --- | --- | --- | --- |
| Cc1cccc(C)c1-c1cc2nc(n1)NS(=O)(=O)c1cccc(c1)NC(=O)c1cc(ccc1Br)O2 | – | – | – | – | ring closure, isolated yield [1]: 20% |
| Cc1cccc(C)c1-c1cc2nc(n1)NS(=O)(=O)c1cccc(c1)NC(=O)c1cccc(c1C)O2 | – | – | – | – | ring closure, isolated yield [1]: 33% |
| C[C@@H]1CCCCC[C@](O)(C(F)(F)F)C2=NN=C(O2)c2nc(c(C(F)(F)F)cc2N)O1 [(6R,12R)-17-amino-12-methyl-6,15-bis(trifluoromethyl)-13,19-dioxa-3,4,18-triazatricyclo[12.3.1.12,5]nonadeca-1(18),2,4,14,16-pentaen-6-ol] | – | – | – | – | CFTR modulatory activity [3]: confirmed |
| Cc1cccc(C)c1-c1cc2nc(n1)NS(=O)(=O)c1cccc(c1)NC(=O)c1cc(ccc1Cl)O2 [Compound 55, 18-chloro-5-(2,6-dimethylphenyl)-9,9-dioxo-2-oxa-9λ^6-thia-6,8,15,23-tetraazatetracyclo[15.3.1.13,7.110,14]tricosa-1(21),3,5,7(23),10(22),11,13,17,19-nonaen-16-one] | 1000 to 3000 nM | < 1000 nM | > 60% | +++ (+++ is >60%) | ring closure, yield after HPLC (from Cc1cccc(C)c1-c1cc(Oc2ccc(Cl)c(C(=O)O)c2)nc(NS(=O)(=O)c2cccc(N)c2)n1, amide bond, 14-membered ring, HATU/DIEA, 1.0 h): 38% |
| Cc1ccc2cc1Oc1cc(-c3c(C)cccc3C)nc(n1)NS(=O)(=O)c1cccc(c1)NC(=O)CC2 [Compound 66, 5-(2,6-Dimethylphenyl)-22-methyl-9,9-dioxo-2-oxa-9λ^6-thia-6,8,15,25-tetraazatetracyclo[17.3.1.13,7.110,14]pentacosa-1(22),3,5,7(25),10(24),11,13,19(23),20-nonaen-16-one] | 1000 to 3000 nM | < 1000 nM | > 60% | +++ (+++ is >60%) | ring closure, yield after HPLC (amide bond, 16-membered ring, none (thermal, isolated OPfp ester), NMP, 67.6 mM, 100.0 °C, 4 steps): 6% |
| Cc1cccc(C)c1-c1cc2cc(n1)NS(=O)(=O)c1cccc(c1)NC(=O)c1cccc(c1)O2 [Compound 77, 5-(2,6-Dimethylphenyl)-9,9-dioxo-2-oxa-9λ^6-thia-6,8,15-triazatetracyclo[15.3.1.13,7.110,14]tricosa-1(20),3,5,7(23),10(22),11,13,17(21),18-nonaen-16-one] | 3000 to 30000 nM | < 1000 nM | > 60% | ++ (++ is 30-60%) | ring closure, yield after HPLC (amide bond, 14-membered ring, HATU/DIEA, DMF, 130.0 mM): 60% |
| Cc1cccc(C)c1-c1cc2nc(n1)NS(=O)(=O)c1cccc(c1)COC1CC(CN(C(=O)OC(C)(C)C)C1)O2 (stereo not shown) [Compound 119, tert-Butyl 19-(2,6-dimethylphenyl)-15,15-dioxo-2,8-dioxa-15λ^6-thia-5,16,18,21-tetraazatetracyclo[15.3.1.13,7.110,14]tricosa-1(21),10,12,14(22),17,19-hexaene-5-carboxylate] | – | – | – | + (+ is <30%) | ring closure, yield after HPLC (from tert-butyl 3,5-dihydroxypiperidine-1-carboxylate + 3-(bromomethyl)-N-[4-chloro-6-(2,6-dimethylphenyl)pyrimidin-2-yl]benzenesulfonamide?, snar bond, 14-membered ring, NaH, DMF, 50.0 mM, 2 steps): 15% |
| Cc1cccc(C)c1-c1cc2nc(n1)NS(=O)(=O)c1cccc(c1)OC(Cc1ccccc1)CCO2 (stereo not shown) [Compound 120] | – | – | – | – | Ent. B Max Activity (%) [5]: ++ (++ is 30-60%); EC50 [5]: < 1000 nM |
| Cc1cccc(C)c1-c1cc2nc(n1)NS(=O)(=O)c1cccc(c1)OC(c1ccccc1)CCO2 (stereo not shown) [Compound 121] | – | – | – | – | Ent. B Max Activity (%) [5]: +++ (+++ is >60%); EC50 [5]: < 1000 nM |
| Cc1cccc(C)c1-c1cc2nc(n1)NS(=O)(=O)c1cccc(c1)OCCCO2 [Compound 122] | – | – | – | – | Ent. B Max Activity (%) [5]: + (+ is <30%); EC50 [5]: 3000 to 30000 nM |
